No end group written: not given here.
Key:
hMSCs = experiment: Loss of stemness: STRO-1 immunostaining of hMSCs cultured with compounds in solution; assay type: cell-based, Human; conditions: compound in cell culture media solution; for STRO-1 Expression (%) after 48 h: 400 ng/mL; for STRO-1 Expression (%) after 96 h: 400 ng/mL added every 24 h
Excerpt: The following starting materials and reagents were used: • Apatite ceramics (also called apatite or ceramic in the present invention) were synthetized as described in Mater Res. 2004; 7(4): 625-630. • Titanium was obtained from Goodfellow®. • Hydrogel (poly(acrylamide-co-acrylic acid) gel) was synthetized as described in Langmuir 2011; 27(22):13635-42. • PEEK was obtained from Goodfellow®. • PET (Poly(ethylene terephthtalate) was obtained from Goodfellow@. • Type-I collagen sponge was obtained from Sigma®. • Hexane was obtained from Sigma®. • 3-succinimidyl-3-maleimidopropionate (SMP) was obtained from Sigma®. • DMF was obtained from Sigma®. • PBS 1× was obtained from Gibco®. • 3-(ethoxydimethylsilyl)propylamine was obtained from Sigma®. • Ammonium persulfate was obtained from Biorad®. • N,N,N′,N′-tetramethylethylenediamine was obtained from Aldrich®. • Acrylamid was obtained from Merck®. • Acrylic acid was obtained from Merck®. • N,N-methylene-bis-acrylamide was obtained from Merck®. • NaOH was obtained from Aldrich®. • N,N,N′,N′-tetramethylethylenediamine was obtained from Aldrich®. • Dimethylaminopropyl-3-ethylcarbodiimide hydrochloride was obtained from Aldrich®. • N-hydroxysuccinimide was obtained from Aldrich®. • 2-(N-morpholino)-ethane sulfonic acid was obtained from Aldrich®. • MilliQ water: is water characterised in terms of resistivity (typically 18.2 MΩ·cm at 25° C.). • Low glucose Dulbecco's Modified Eagle Medium (DMEM) was obtained from Invitrogen® • Minimum Essential Medium Eagle without ascorbic acid (αMEM) was obtained from Invitrogen®. • All of the cell culture experiments were carried out without any serum in the medium for the first 8 hours of culture. • Osteoblast progenitors or precursor osteoblasts: MC3T3-E1 cells were obtained from ATCC®. These cells were cultured in Alpha-MEM medium supplemented with 10% fetal calf serum (FCS) and 1% penicillin/streptomycin. All cells were used at a low passage number (passage 7), were subconfluently cultured and were seeded at 10^4 cells/cm^2 for the purpose of the experiments. • Human bone marrow Mesenchymal Stem Cells (hMSCs) were obtained from Lonza®. These cells were cultured in Alpha-MEM supplemented with 10% (v/v) FBS and 1% penicillin/streptomycin and incubated in a humidified atmosphere containing 5% (v/v) CO2 at 37° C. All cells were used at a low passage number (passage 2 to 4), were subconfluently cultured and were seeded at 10^4 cells/cm^2 for the purpose of the experiments. • Human adipose Mesenchymal Stem Cells (haMSCs) were obtained from Lonza®. These cells were cultured in Alpha-MEM supplemented with 10% (v/v) FBS and 1% penicillin/streptomycin and incubated in a humidified atmosphere containing 5% (v/v) CO2 at 37° C. All cells were used at a low passage number (passage 3 to 4), were subconfluently cultured and were seeded at 10^4 cells/cm^2 for the purpose of the experiments. • Mouse Hair Follicle Stem Cells were isolated and cultured as described in Methods Mol Biol. 2010; 585:401-20. • Neuron cells are Neuronal Schwann Cells obtained from ATCC®. These cells were cultured in Dulbecco's Modified Eagle's Medium supplemented with 10% (v/v) FBS and 1% penicillin/streptomycin and incubated in a humidified atmosphere containing 5% (v/v) CO2 at 37° C. All cells were used at a low passage number (passage 6-8), were subconfluently cultured and were seeded at 10^4 cells/cm^2 for the purpose of the experiments. • Human umbilical-vein endothelial cells (HUVECs) were purchased from Promocell®. HUVECs were isolated and grown on gelatin coated culture flasks in a complete HUVEC culture medium (IMDM (Invitrogen, France) supplemented with 20% (v/v) fetal bovine serum (FBS) (PAA, France) and 0.4% (v/v) EC growth supplement/heparin kit (Promocell, France)). Cells were subcultured by using trypsin/EDTA (Invitrogen, France) and maintained in a humidified atmosphere containing 5% CO2 at 37° C. These cells were used at a passage number 3 to 5 for the purpose of the experiments. […]

[1] = tested on: Human Hematopoietic Stem Cells; experiment: Differentiation of human hematopoietic stem cells: loss of stemness marker CD-34+ (immunostaining); assay type: cell-based; conditions: compound in cell media solution, 400 ng/mL, 48 hours

Substance	STRO-1 Expression (%) after 48 h (hMSCs)	STRO-1 Expression (%) after 96 h (hMSCs)	CD34+ Expression (%) [1]
AVPKASSVPQKLEPLTILYYDSSNNVIEQLSNNMVKSIGKTPKID (also: cyclic, ring type not given here) [SEQ ID NO: 736]	37%		
VPTAASAISILYLDAANNVVLKNYQAAVVEDKGVVTY (also: cyclic, ring not given here) [SEQ ID NO: 713]	29%	23%	
APVKMEPLPTVYYDDMGVPTEQLSNDMVEESGSLDDMGVPT (also: cyclic, ring type not given here) [SEQ ID NO: 746]			37%
VPTDDSATSTLYYDKGVVTYLRKHRDDEHSDKGVVTY (also: cyclic, ring not given here) [SEQ ID NO: 727]	26%	13%	
VSQAARPVQTRKIDDMGVPTKKATVAAVKSDDMGVPT (also: cyclic, ring not given here) [SEQ ID NO: 741]			26%
VPTVVSAISTLYLRIKPHQGQHLKNYQVVVVENDKQQII (also: cyclic, ring not given here) [SEQ ID NO: 715]	31%	24%	
KIPKASSVPQELEPLPIVYYDENEKVVEQLSNDMVRSGSGSRDENEKV (also: cyclic, ring type not given here) [SEQ ID NO: 735]	26%		
VPTSSSPISTLYIDKGVVTYLKYHYSSVAEDEYDKVV (also: cyclic, ring not given here) [SEQ ID NO: 718]	26%	19%	
SRVLLRPVQMRKIDKGVVTYKKATVLLEEHDKGVVTY (also: cyclic, ring not given here) [SEQ ID NO: 729]	37%	14%	
APTLLNAISMLYFNDKQQIILKKYRLLVVRNDKQQII (also: cyclic, ring type not given here) [SEQ ID NO: 716]	30%	20%	
PTSSAPTDLRSVKMAKVEIVRKKPIFKEVQVDMVVKASGDKGVVTY (also: cyclic, ring type not given here) [SEQ ID NO: 742]			33%
KASSSRVKMSNITVQ1MRIKPHOGQHIGEMSVVEEHASGSHDKGVVTY (KASSSRVKMSNITVQIMRIKPHQGQHIGEMSVVEEHASGSHDKGVVTY; not fully specified (residue 23); printed as KASSSRVKMSNITVQ1MRIKPHOGQHIGEMSVVEEHASGSHDKGVVTY; also: cyclic, ring type not given here) [SEQ ID NO: 743]			42%
EPSSSRVRLEPLTTLYYGGGGGGGEQLSNVVEEHSKDKGVVTY (also: cyclic, ring type not given here) [SEQ ID NO: 745]			37%
ASASPSSVSQDLRSVKVAKVIGKTPKIKEVQVMIVKSSKIGKTPKID (also: cyclic, ring type not given here) [SEQ ID NO: 738]	31%		
VPEAASSLSMLFFEIVRKKPIFLKVYPAATVEDKGVVTY (also: cyclic, ring not given here) [SEQ ID NO: 714]	28%	18%	
KASSVPQEERPVQMRKIGGGGGGGKKATVMIVRSSKSSDDMGVPT (also: cyclic, ring type not given here) [SEQ ID NO: 740]			31%
APVAAKPLSMLYVDKGVVTYDHHKDAAVEEDEYDKVV (also: cyclic, ring type not given here) [SEQ ID NO: 722]	31%	18%	
NDEGLESVPTGQSPISILYIRIKPHQGQHYKQYELEEHSQSESRDENEKV (also: cyclic, ring type not given here) [SEQ ID NO: 732]	27%		

Substance	STRO-1 Expression (%) after 48 h (hMSCs)	STRO-1 Expression (%) after 96 h (hMSCs)	CD34+ Expression (%) [1]
SRVAARSVKMAKVGGGGGGGKEVQVAAEEHGGGGGG (also: cyclic, ring not given here) [SEQ ID NO: 726]	39%	21%	
TQVAARPVQTRKIDDMGVPTKKATVAAEDHDKGVVTY (also: cyclic, ring not given here) [SEQ ID NO: 730]	36%	21%	
TPTSSSPINTLYFDDMGVPTYGKIPSSVVDDEYDKVV (also: cyclic, ring not given here) [SEQ ID NO: 720]	21%	14%	
VPQQQEPLTTLYYDEYDKVVEQLSNQQVKSNDKQQII (also: cyclic, ring not given here) [SEQ ID NO: 724]	29%	16%	
VPTAAEPISMLYLDEYDKVVKFKYEAAAVSNDKQQII (also: cyclic, ring not given here) [SEQ ID NO: 719]	26%	16%	
VPTGGEPLTTLYYNDKQQIIEQLSNGGEHSDDMGVPT (also: cyclic, ring not given here) [SEQ ID NO: 728]	32%	17%	
VPTVVSPISMLYIDDMGVPTYKQYEVVVVEDDMGVPT (also: cyclic, ring not given here) [SEQ ID NO: 721]	29%	16%	
APTGGSATSMLYYDKGVVTYLRKHRGGVVKDKGVVTY (also: cyclic, ring type not given here) [SEQ ID NO: 717]	28%	17%	
ASASPSSAPVDLKPLSMLYVIGKTPKIDHHKDMIVEESKSIGKTPKID (also: cyclic, ring type not given here) [SEQ ID NO: 734]	33%		
VPQAAEPLPMLYYDKGVVTYEQLSNAAVRSDKGVVTY (also: cyclic, ring not given here) [SEQ ID NO: 723]	34%	20%	
VPTAAEPLTMLYYEIVRKKPIFEQLSNMVEHSDDMGVPT (also: cyclic, ring not given here) [SEQ ID NO: 744]			38%
HVTKPTSVPTKLSPISILFIDDSSNVIYKQYENMVVESSGSHIGKTPKID (also: cyclic, ring type not given here) [SEQ ID NO: 733]	23%		
RVPSTSSAPVKTSNITMQIMDNGRVLLLGEMSMIVEESGSLIGKTPKID (also: cyclic, ring type not given here) [SEQ ID NO: 737]	28%		
VPTMMSNITTQIMRIKPHQGQHIGEMSMMQHNDEYDKVV (also: cyclic, ring not given here) [SEQ ID NO: 725]	35%	20%	
VPQRLEPLTILYYDAANNVVEQLSNDMVKSDENEKV (also: cyclic, ring not given here) [SEQ ID NO: 731]	31%		
EPSSVSQAAEPLPIVYYRIKPHOGQHEQLSNMIVKSSKSSDDMGVPT [SEQ ID NO: 747]			38%
IPKASSAPVGQRPVQMRKIDKGVVTYKKATVSSVEESGSLDKGVVTY (also: cyclic, ring type not given here) [SEQ ID NO: 739]			35%
